Source: patent US20220299532A1, “CORRECTING PROTEIN MISFOLDING IN DIABETES” (Sanford Burnham Prebys Medical Discovery Institute, priority 2019, published 2022)
Residues, ends and D or L forms follow the SMILES beside them. *: point of attachment. Cbz = O=C(OCc1ccccc1)*

Key:
mouse pancreatic islets = assay: Proinsulin disulfide-linked / HMW complexes in murine islets, SDS-PAGE immunoblot (CCI-17); type: cell-based; conditions: islets of WT male mice on regular diet, increasing concentrations of DTT in culture
Description: Mouse pancreatic islet isolation: Mice were euthanized by CO2 narcosis as per an approved institutional animal protocol. The pancreas was rapidly excised, minced in ice-cold PBS, and digested in 4 mL of Collagenase P (Roche) 1.5 mg/mL in Hank's Balanced Salt Solution containing calcium and magnesium, in a shaking water bath for 30 min at 37° C. The digestion was terminated in 40 mL ice-cold PBS (—Ca/—Mg) and the digested tissue washed twice in this buffer. The sedimented tissue digest was then overlaid with 3 mL Histopaque-1077 and further overlayed with 6 mL ice cold PBS (—Ca/—Mg) before centrifugation (3000 rpm for 20 min at 10° C. with no brake) and transfer of the midlayer of the Histopaque gradient to a 15 ml tube for two further washes in ice-cold PBS. Finally, the sedimented tissue was transferred to a petri dish in ice-cold RPMI-1640 buffer and islets hand-picked to purity. In experiments involving drug or compound treatment, the islets were finally recovered overnight in RPMI-1640 supplemented with 10% fetal bovine serum (FBS), 10 mM HEPES pH 7.35, 1 mM sodium pyruvate and 0.05 mM beta-mercaptoethanol, in a humidified 5% CO2 incubator at 37° C. For some experiments, islets were snap frozen in liquid nitrogen and stored frozen prior to analysis.
(§1) Lysis of cells or islets for SDS-PAGE and electrotransfer: After removal of media, cells were washed once with ice-cold PBS and lysed in RIPA buffer (10 mM Tris pH 7.4, 150 mM NaCl, 0.1% SDS, 1% NP40, 2 mM EDTA) plus protease inhibitor/phosphatase inhibitor cocktail (Sigma-Aldrich) or directly in Laemmli gel sample buffer. Lysates in RIPA buffer were immediately spun at 10,000 rpm for 10 min at 4° C. and the supernatants analyzed further or stored at −80° C. Islets that had been quick frozen were placed on ice and RIPA buffer containing protease inhibitor cocktail and phosphatase inhibitor was added. Lysis was carried out by gently pipetting or by syringe through a 30G needle. Total protein concentration in the lysate was determined by BCA or Bramhall assay, and 5-10 μg of samples prepared in SDS sample were resolved by SDS-PAGE in 4-12% Bis-Tris NuPAGE gels (Invitrogen) at 200 V for 30 min. Nonreducing gels were incubated in a solution containing 20 mM dithiothreitol (DTT) for 10 min at room temperature prior to electrotransfer.
(§2) Immunoblotting: Transfer membranes were rinsed once in TBST (15 mM Tris, 150 mM NaCl, 0.1% Tween-20), blocked using TST plus 5% BSA for 1 h at room temperature, and then washed four times (5 min each) in TBST. Primary antibody and secondary antibodies were diluted in TBST and each of […] incubations was 1 h at room temperature followed by 4 washes in TBST. On occasion, primary antibodies were incubated overnight at 4° C. Secondary antibodies were all HRP-conjugates. Development of immunoblots used enhanced chemiluminescence (Immobilon, Millipore, or SuperSignal West Pico PLUS, Thermo Fisher Scientific) with images captured using a Fotodyne gel imager.
Islet Isolation: Islets were isolated by collagenase P (Roche) perfusion as described following by histopaque-1077 (Sigma-Aldrich, Inc. St. Louis) gradient purification. Islets were handpicked and studied directly or after overnight culture in RPMI 1640 medium (Corning 10-040-CV) supplemented with 10% FBS, 1% penicillin/streptomycin, 100 μg/m1 primocin, 10mM Hepes, and 1mM sodium pyruvate.
Islet Western Blotting: Isolated islets were lysed in RIPA buffer (10 mM Tris pH 7.4, 150 mM NaCl, 0.1% SDS, 1% NP-40, 2mM EDTA) with protease and phosphatase inhibitors (Fisher Scientific) on ice for 10 min and lysates were collected after centrifugation at 4° C. for 10 min at 12000 g. Samples were prepared in Laemmli sample buffer without (non-reducing) or with (reducing) 5% β-mercaptoethanol. After boiling for 5 min, samples were analyzed by SDS-PAGE (4-12% Bis-Tris gel, (Bio-Rad Laboratories, Inc.)) and transferred to nitrocellulose membranes (Bio-Rad Laboratories, Inc.). […]

[1] = test system: murine embryonic fibroblasts (MEFs); assay: Human proinsulin delivered by adenovirus to murine embryonic fibroblasts, non-reducing SDS-PAGE; type: cell-based, mouse; conditions: MEFs infected with Ad-hProins, increasing concentrations of DTT
Description: Generation and culture of primary mouse embryonic fibroblast (MEF): WT C57BL/6 d14 embryos were isolated under sterile conditions and placed in 100 mm cell culture dish containing PBS. Placental and other maternal tissues were removed and the embryos were washed three times with PBS. Heads and visceral organs were removed. The heads were used for genotyping. Embryos were finely minced with a sterile razor blade and treated with 1 ml of 0.25% trypsin/EDTA (Corning) for 40 min at 37° C. DMEM medium (Corning) supplemented with 10% FBS, 1% penicillin/streptomycin, 100 μg/ml primocin and 1 mM sodium pyruvate was added to quench trypsin activity. Tissue homogenate was subsequently disaggregated by repeated pipetting, and further centrifuged to collect the fibroblast cell pallet. Cells were plated in 100 mm culture dish in DMEM medium at 37° C. in a cell culture incubator under 5% CO2. To prevent mycoplasma, bacterial, and fungal contamination, primary MEFs were cultured in medium containing 100 μg/ml primocin (InvivoGen) and used for experiments prior to passage #5.
To study the impact of PDIA1 in the absence of C peptide processing in a more manipulatable system, the inventors analyzed human proinsulin expression delivered by adenovirus to murine embryonic fibroblasts (MEFs) that were co-infected with WT PDIA1 or PDIA1 with 4 Cys to Ser mutations in the two vicinal catalytic PDI sites. […]

INS-832/13 β-cell line = assay: Detection of myc-tagged two-cysteine proinsulin mutants in INS-832/13 cells, nonreducing SDS-PAGE immunoblot; type: cell-based, rat; conditions: MG132 10 μg/mL for 7 h
Description: (§3) Cell and islet culture: Rat pancreatic beta cell lines INS1E and INS-832/13 were cultured in RPMI-1640 medium supplemented with 10% FBS, 10 mM HEPES pH 7.35, 1 mM sodium pyruvate, penicillin/streptomycin and 0.05 mM beta-mercaptoethanol. HEK293T human cells lines were cultured in DMEM supplemented with 10% FBS and penicillin/streptomycin.
(§4) Transfection of cells: 293T cells, INS1E cells, and INS-832/13 cells at 70-80% confluency were transiently transfected using Lipofectamine 2000 (ThermoFisher) as per the manufacturer's instructions. A medium change was performed 5 h post-transfection and the cells were lysed at 36 or 48 h.
as §1, with “Islets that had been quick frozen were placed on ice and RIPA buffer containing protease inhibitor cocktail and phosphatase inhibitor was added. Lysis was carried out by gently pipetting or by syringe through a 30G needle.” left out, “Nonreducing gels were incubated in a solution containing 20 mM dithiothreitol (DTT) for 10 min at room temperature prior to electrotransfer.” left out

INS1E cells [2] = assay: Proinsulin disulfide-linked complexes in INS1E cells, nonreducing/reducing SDS-PAGE and immunoblotting (mAb CCI-17); type: cell-based, rat
Description: HEK293T human cells lines were cultured in DMEM supplemented with 10% FBS and penicillin/streptomycin.
as §1, with “Islets that had been quick frozen were placed on ice and RIPA buffer containing protease inhibitor cocktail and phosphatase inhibitor was added.” left out, “Total protein concentration in the lysate was determined by BCA or Bramhall assay, and 5-10 μg of samples prepared in SDS sample were resolved by SDS-PAGE in 4-12% Bis-Tris NuPAGE gels (Invitrogen) at 200 V for 30 min.” left out
The lane was then laid horizontally on top of a 10% SDS-polyacrylamide resolving gel and sealed in place in stacking gel. A single-tooth comb was introduced at one end of the stacking gel to introduce a one-dimensional reduced sample of proinsulin containing cell lysate (which runs as proinsulin monomer). The gel was run at 200 V for 45 mins in Tris-Glycine buffer pH 8.8 with electrotransfer as described above.
as §2

293T cells = assay: Disulfide-linked complexes of recombinant human proinsulin in 293T cells, nonreducing SDS-PAGE immunoblot (mAb 20G11); type: cell-based; conditions: overnight PERK inhibitor
Description: as §3, §4
as §1, with “Islets that had been quick frozen were placed on ice and RIPA buffer containing protease inhibitor cocktail and phosphatase inhibitor was added. Lysis was carried out by gently pipetting or by syringe through a 30G needle.” left out, “Nonreducing gels were incubated in a solution containing 20 mM dithiothreitol (DTT) for 10 min at room temperature prior to electrotransfer.” left out

human islets = assay: Proinsulin disulfide-linked complexes in human islets, SDS-PAGE immunoblot (mAb 20G11); type: cell-based; conditions: overnight PERK inhibitor
Description: Human pancreatic islets: Human islets were obtained either from Prodo Labs, or from the NIDDK-funded Integrated Islet Distribution Program (IIDP; NIH UC4-DK098085) and maintained in a humidified 5% CO2 incubator at 37° C. Human islets were cultured ex vivo for up to 96 h in Prodo PIM(R) islet19 specific tissue culture medium supplemented with 10% FBS and Prodo PIM(G) glutamine/glutathione supplement, plus penicillin/streptomycin.
as §1, with “Nonreducing gels were incubated in a solution containing 20 mM dithiothreitol (DTT) for 10 min at room temperature prior to electrotransfer.” left out

INS1E cells [3] = assay: Intracellular proinsulin distribution in INS1E cells, indirect immunofluorescence; type: cell-based, rat; conditions: overnight PERK inhibitor, anti-proinsulin GS-9A8 and anti-calnexin
Description: Immunohistochemistry/immunocytochemistry: Pancreatic paraffin sections were de-paraffinized with Citrisolv (Fisher Scientific) for 5 min at room temperature, re-hydrated in a series of 8 min ethanol incubations: 100%, 95%, 70%, and distilled water. Antigen retrieval was carried out using Retrieve-ALL 1 Universal pH 8 (BioLegend) and slides were heated in a microwave, cooled for 30 min at room temperature, and incubated once with PBS for 5 min. Blocking was performed in 150 μL blocking buffer (3% BSA prepared in TBS and 0.2% Triton X-100) per section for 2 h at room temperature. Blocking buffer was removed and 150 μL per section of primary antibody appropriately diluted in TBS plus 3% BSA and 0.2% Tween-20 was incubated overnight at 4° C. The primary antibody was removed and the slide washed twice with TBS/0.1% Tween-20. Then, 150 μL secondary antibody (1:500 dilution, prepared in antibody buffer) per section was incubated for 1 h at room temperature. Slides were washed thrice with TBS/0.1% Tween-20, mounted with a drop of prolong gold anti-fade reagent with DAPI (ThermoFisher) and a cover slip affixed. For immunocytochemistry, INS1E cells were grown in an 8-well Millicell® EZ SLIDE (Millipore-SIGMA). Cells were allowed to reach 60-80% confluency before addition of PERK inhibitor (PERKi) or vehicle. […]

O[C@H](CS)[C@H](O)CS (racemic) [dithiothreitol]
proinsulin monomer and dimer (mouse pancreatic islets): increasing amounts of the proinsulin monomer and residual disulfide-linked dimer | reduced proinsulin [1]: increased the amount of reduced proinsulin

CC(C)C[C@@H](C=O)NC(=O)[C@H](CC(C)C)NC(=O)[C@H](CC(C)C)NC(=O)OCc1ccccc1 [MG132] (Cbz-Leu-Leu-Leu-aldehyde)
detection of myc-tagged proinsulin mutants (keep-B7/A7, keep-A6/A11, keep-B19/A20) (INS-832/13 β-cell line): myc-tagged proinsulin monomers were detected in all cases

Cc1cccc(CC(=O)N2CCc3c2ccc(-c2cn(C)c4ncnc(N)c24)c3F)n1 [PERK inhibitor, GSK2656157]
disulfide-linked proinsulin complexes as share of all recovered proinsulin (INS1E cells [2]; INS1E cells treated with PERK inhibitor, 2D nonreducing/reducing SDS-PAGE): 87% | intracellular proinsulin in disulfide-linked complexes with increasing time of exposure (INS1E cells [2]; INS1E cells, PERK inhibitor for last 0, 5, 10 or 20 h): the majority of intracellular proinsulin accumulated in disulfide-linked complexes | intracellular accumulation of proinsulin (INS1E cells [2]; INS1E cells, PERK inhibitor overnight (GSK2656157, 2 μM) vs vehicle DMSO): dramatically increased | insulin content (INS1E cells [2]; INS1E cells, PERK inhibitor up to 20 h): decreased insulin content | proinsulin secretion (INS1E cells [2]; INS1E cells, PERK inhibitor up to 20 h, media): decreased proinsulin secretion | secretion of proinsulin to the medium (INS1E cells [2]; INS1E cells, overnight PERK inhibitor, nonreducing SDS-PAGE of media): not increased | disulfide-linked proinsulin dimers and higher-order complexes of recombinant human proinsulin (293T cells): accumulated to a dramatically higher level | higher order disulfide-linked proinsulin complexes (human islets; nonreducing SDS-PAGE): further increase in higher order disulfide-linked complexes | total islet proinsulin (human islets; reducing SDS-PAGE): increase in total islet proinsulin | intracellular proinsulin distribution (INS1E cells [3]): shifted its distribution to the classic impacted-ER phenotype
